Source: patent US8901042B2, “High throughput screen for measuring membrane effects” (Cornell University, priority 2009, dated 2014)
Like-named read-outs stand apart in the source and are kept apart here.

Columns and labels:
[1] = tested on: gA channel in DC18:1PC/n-decane bilayers; settings: cited from earlier work; for Single channel: concentration at which the molecule double/half gA channel lifetime: standard bilayer-punch electrophysiological methods
[2] = tested on: gramicidin A (gA) channels in DC22:1PC lipid bilayer vesicles; experiment: gramicidin-based stopped-flow fluorescence quench assay (Tl+ influx into ANTS-filled, gA-doped LUVs); assay type: biochemical, Bacillus brevis; settings: for Flourescence: concentration at which the molecules double/half the rate of the fluorescence quenching: fitted stretched exponential, rate at 2 ms, DC22:1PC LUVs; for rate of quencher influx (rate of stretched exponential): 260 nM gA, mean±SD, n>10, control 36±6
Experimental: 24 hours before fluorescence measurements, ANTS-filled liposomes were mixed 1:20 in S_Na_Buffer. For the portion of liposomes that are to be doped with gramicidin, the desired amount of gramicidins was added at this time. […] Gramicidin diluted in DMSO was used, but the added DMSO was kept to an absolute minimum (<0.1% of volume) as DMSO of >0.5% affects bilayer properties. The solution was stored at 12-13° C. in the dark.
The modifier in question was diluted in DMSO. The same amount of DMSO was added to all samples, including control.
For each condition: • 1. Use 1.5 mL of diluted ANTS-liposomes for each condition (compound, concentration). • 2. Add compound at the desired concentration and incubate for 10 min at 25° C. (keep in dark), or DMSO for controls. • 3. Record fluorescence, x8 repeats, with S_Na_Buffer (the first four should be removed due to mixing). • 4. Record fluorescence, x12 repeats, with S_Tl_Quencher (the first four should also be removed due to mixing).
Generate fluorescent liposomes. […] 1,2-Dierucoyl-sn-Glycero-3-Phosphocholine lipids, from Avanti Polar Lipids (Alabaster, Ala.), were bought in a lipid/chloroform solution and used without further purification. For each batch of vesicles, the lipid/chloroform solution was dried under nitrogen and then further dried in a dessicator under vacuum overnight to fully remove the chloroform. The dried lipid film was rehydrated in 100 mM NaNO3, 25 mM ANTS, 10 mM HEPES at pH 7.0 at room temperature over night, volume was adjusted to give a 10 mM lipid concentration. The suspension was then sonicated in a low power sonicator for 1 min, subjected to 5-6 freeze thaw cycles and extruded 21 times, at room temperature, using Avanti mini-extruder, Avanti Polar Lipids (Alabaster, Ala.), and a 0.1 μm Polycarbonate Membrane filter. External ANTS was removed by filtering though a PD-10 Desalting column, GE Healthcare (Piscataway, N.J.). Prepared ANTS-LUV stock was stored at 12-13° C. in the dark for a maximum of seven days. Before the fluorescence experiments ANTS-LUV stock was diluted 1:20 with 140 mM NaNO3, 10 mM HEPES, pH 7.0 buffer. For the portion of vesicles to be doped with gA the desired amount of gramicidin from Bacillus aneurinolyticus, Sigma Chemical Co. (St. Louis, Mo.), diluted in dimethylsulfoxide (DMSO) was added and incubated for 24 hours at 12-13° C. in the dark.
The final DMSO concentrations were kept consistent for all samples and under 0.5% with the exception of when DMSO was tested, then listed amounts where used and no DMSO was added to controls.
The fluorescence was measured using a SX.20 Stopped-Flow Spectrometer (Applied Photophysics, Leatherhead, UK), with a 150-W Xenon lamp, a two sample rapid mixing unit with machine dead time˜1.2 ms and a thermostatting water bath set to 25° C. The samples were excited at X=352 nm and fluorescence was recorded though λ=455 nm high pass filter with Pro-Data control software from Applied Photophysics, sampling 5000 points a second. For each sample at least 10 repeated mixing trials were measured, from two or more vesicle preparations. Each repeat was separately analyzed using MATLAB v7.4, The MathWorks, Inc (Natick, Mass.). The time course of fluorescence quenching was normalized to the average fluorescence without quencher, for that particular sample, and the first 2-100 ms of the time course was fitted with a stretched exponential. The initial influx rate is quantified as the rate of the stretched exponential at 2 ms.

Shaker potassium channel = Shaker potassium channel (Drosophila melanogaster, UniProt P08510); settings: cited from earlier work
Chain of Shaker potassium channel (P08510 whole entry): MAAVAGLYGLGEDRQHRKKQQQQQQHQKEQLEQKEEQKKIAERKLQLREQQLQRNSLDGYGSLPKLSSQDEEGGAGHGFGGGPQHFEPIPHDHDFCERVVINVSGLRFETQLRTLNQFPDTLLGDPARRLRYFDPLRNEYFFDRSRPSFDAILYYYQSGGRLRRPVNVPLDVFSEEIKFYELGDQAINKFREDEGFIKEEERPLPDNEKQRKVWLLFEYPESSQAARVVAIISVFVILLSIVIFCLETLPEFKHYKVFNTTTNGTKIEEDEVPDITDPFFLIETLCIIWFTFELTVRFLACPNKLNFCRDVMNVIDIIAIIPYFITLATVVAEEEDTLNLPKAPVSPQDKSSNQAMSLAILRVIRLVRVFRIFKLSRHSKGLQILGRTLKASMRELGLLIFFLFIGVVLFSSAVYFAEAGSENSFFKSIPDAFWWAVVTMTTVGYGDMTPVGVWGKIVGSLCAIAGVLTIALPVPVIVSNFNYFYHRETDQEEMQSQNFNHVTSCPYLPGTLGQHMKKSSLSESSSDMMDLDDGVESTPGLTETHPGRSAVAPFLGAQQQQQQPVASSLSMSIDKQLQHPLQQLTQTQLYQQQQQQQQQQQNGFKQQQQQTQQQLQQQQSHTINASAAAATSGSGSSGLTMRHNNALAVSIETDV

| Compound | Single channel: concentration at which the molecule double/half gA channel lifetime [1] | Flourescence: concentration at which the molecules double/half the rate of the fluorescence quenching [2] | other results |
| --- | --- | --- | --- |
| [Gd+3] [Gd^3+] | > 30 µM | <1000 | – |
| COc1cc(CNC(=O)CCCC/C=C/C(C)C)ccc1O [Capsaicin] | 25 µM | 21 | rate of quencher influx (rate of stretched exponential) ([2]; 10 μM capsaicin): 69±6; rate of quencher influx (rate of stretched exponential) ([2]; 30 μM capsaicin): 85±8; rate of quencher influx (rate of stretched exponential) ([2]; 90 μM capsaicin): 247±27; rate of fluorescence quenching (Tl+ influx) in the presence of gramicidin ([2]; 10, 30, 90 μM, concentration dependent): increased |
| OC(c1cc(C(F)(F)F)nc2c(C(F)(F)F)cccc12)C1CCCCN1 (centres unmarked) [Mefloquine] | 6 µM | 37 | gA channel frequency ([1]; single-channel electrophysiology): decreases |
| Oc1cc2c(cc1O)CN(C(=S)NCCc1ccc(Cl)cc1)CCC2 [Capsazepine] | 4 µM | 16 | – |
| O=c1c(-c2ccc(O)cc2)coc2cc(O[C@@H]3O[C@H](CO)[C@@H](O)[C@H](O)[C@H]3O)cc(O)c12 [Genistin] | >>30 | 910 | – |
| C[S+](C)[O-] [Dimethyl sulfoxide] | – | 340,000 | Single channel: concentration at which the molecule double/half gA channel lifetime ([1]; in µM): >410,000; amount that affects bilayer properties ([2]; % of volume): > 0.5% |
| O=c1c(-c2ccc(O)cc2)coc2cc(O)cc(O)c12 [Genistein] | 25 µM | 22 | – |
| Triton X-100 | 9 µM | 13 | – |
| (−)-epigallocatechin gallate | 0.25 µM | 12 | effect on gA channel conductance ([1]; single-channel): causes conductance flickers or sub-conductance states |
| NCCc1c(SSc2[nH]c3cc(Br)ccc3c2CCN)[nH]c2cc(Br)ccc12 [BrMT] | – | – | Shaker potassium channel activation (Shaker potassium channel): slows; effect on lipid bilayer properties (gA channel activity, stopped-flow) ([2]; stopped-flow experiments): altered lipid bilayer properties |
| CCCCCCCCO[C@@H]1O[C@H](CO)[C@@H](O)[C@H](O)[C@H]1O [β-octylglucoside] | 270 µM | 325 | – |
